From publication PMC3454511 (The Journal of organic chemistry, 2012)
Values after ≈ are worked out from the molar mass of the structure shown.

What was measured:
[1] = BBB parallel artificial membrane permeability assay; type: in vitro ADME; conditions: for Papp: PAMPA; for BBB PAMPA: Pe
[2] = Bidirectional Caco-2 permeability; type: in vitro ADME; conditions: human, Caco-2
physchem = conditions: thermodynamic from solid
Plasma stability, mouse = conditions: % parent remaining at 5 h
Plasma stability, human = conditions: % parent remaining at 5 h
[3] = Microsomal stability, mouse; conditions: % parent remaining at 1 hour
[4] = Microsomal stability, human; conditions: % parent remaining at 1 hour
[5] = Plasma protein binding by rapid-equilibrium dialysis, mouse; conditions: 37 °C for 5 h
[6] = Plasma protein binding by rapid-equilibrium dialysis, human; conditions: 37 °C for 5 h
Caco-2 monolayer = assay: Bidirectional Caco-2 permeability; type: in vitro ADME; conditions: for Caco-2 A-B: A-B direction; for Caco-2 B-A: B-A direction
[7] = Hepatocyte stability, mouse; conditions: % parent remaining at 2 hour
[8] = Hepatocyte stability, human; conditions: % parent remaining at 2 hour
[9] = Solubility in PBS and H2O, dry powder, 24 hour timepoint

| Structure (SMILES) | Papp A→B [2] | Papp B→A [2] | solubility at 24 h (physchem; PBS, aqueous buffer) | plasma stability mouse (Plasma stability, mouse) | plasma stability human (Plasma stability, human) | microsomal stability mouse [3] | microsomal stability human [4] | protein binding mouse [5] | protein binding human [6] | Caco-2 A-B (Caco-2 monolayer) | Caco-2 B-A (Caco-2 monolayer) | hepatocytes mouse [7] | hepatocytes human [8] | solubility H2O [9] | solubility PBS [9] | Papp [1] | solubility at 24 h (physchem; water) | BBB PAMPA [1] |
| --- | --- | --- | --- | --- | --- | --- | --- | --- | --- | --- | --- | --- | --- | --- | --- | --- | --- | --- |
| CCCN1C2CNCC1C2c1ccccc1 (stereo not drawn) [27a, 7-Phenyl-6-propyl-3,6-diazabicyclo[3.1.1]heptane] | 30 ×10⁻⁶ cm/s | 22 ×10⁻⁶ cm/s | > 500 µM | 103 % remaining | 102 % remaining | 79 % remaining | 94 % remaining | 35 % bound | 49 % bound |  |  |  |  |  |  | 4 ×10⁻⁶ cm/s | > 500 µM |  |
| CS(=O)(=O)N1CC(=O)N2[C@H](CO)[C@H](c3ccccc3)[C@@H]2C1 [28c, (6R,7R,8S)-8-(Hydroxymethyl)-4-(methylsulfonyl)-7-phenyl-1,4-diazabicyclo [4.2.0] octan-2-one] | 17 ×10⁻⁶ cm/s | 20 ×10⁻⁶ cm/s | > 500 µM | 106 % remaining | 78 % remaining | 100 % remaining | 104 % remaining | −2.3 % bound | −4.6 % bound |  |  |  |  |  |  |  |  |  |
| CN1CC(=O)N2[C@H](CO)[C@H](c3ccccc3)[C@@H]2C1 [28a, (6R,7R,8S)-8-(Hydroxymethyl)-4-methyl-7-phenyl-1,4-diazabicyclo[4.2.0]octan-2-one] | 43 ×10⁻⁶ cm/s | 31 ×10⁻⁶ cm/s | > 500 µM | 116 % remaining | 99 % remaining | 104 % remaining | 112 % remaining |  |  |  |  |  |  |  |  |  |  |  |
| CCCN1[C@H](CO)[C@H](c2ccccc2)[C@@H]1C#N [26a, (2R,3R,4S)-4-(Carbonitrile)-3-phenyl-1-propylazetidine-2-hydroxymethyl] |  |  |  | 110 % remaining | 109 % remaining | 62 % remaining | 88 % remaining | 65 % bound | 65 % bound | 67 10^−6 cm.s^−1 | 49 10^−6 cm.s^−1 | 59 % remaining | 54 % remaining | >500 µM | 402 µM (≈ 92.6 µg/mL) |  |  |  |
| CCCN1C(CO)C2c3ccccc3NCC21 (racemic) [31a, ((±)-2-Propyl-1,2,2a,3,4,8b-hexahydroazeto[2,3-c]quinolin-1-yl) methanol] |  |  |  | 108 % remaining | 97 % remaining | 94 % remaining | 85 % remaining | 22 % bound | 10 % bound | 43 10^−6 cm.s^−1 | 29 10^−6 cm.s^−1 |  |  | 495 µM (≈ 115 µg/mL) | >500 µM |  |  | 31 10^−6 cm s^−1 |
| O=C1CNC[C@H]2[C@@H](c3ccccc3)[C@@H](COC(c3ccccc3)(c3ccccc3)c3ccccc3)N12 [28b, (6R,7R,8S)-7-Phenyl-8-((trityloxy)methyl)-1,4-diazabicyclo[4.2.0]octan-2-one] | 12 ×10⁻⁶ cm/s | 17 ×10⁻⁶ cm/s | > 500 µM |  |  |  |  |  |  |  |  |  |  |  |  |  |  |  |
| CCCN1[C@H](CO)[C@H](c2ccccc2)C12CNC2 [30a, (2S,3S)-1-Propyl-2-hydroxymethyl-3-phenyl-1,6-diazaspiro[3.3]heptane] | 3 ×10⁻⁶ cm/s | 12 ×10⁻⁶ cm/s | > 500 µM | 108 % remaining | 106 % remaining | 93 % remaining | 95 % remaining |  |  |  |  |  |  |  |  |  |  |  |
| CCCN1C2CN(Cc3ccc(F)cc3)CC1C2c1ccccc1 (stereo not drawn) [27d, 3-(4-Fluorobenzyl)-7-phenyl-6-propyl-3,6-diazabicyclo[3.1.1]heptane] | 14 ×10⁻⁶ cm/s | 7 ×10⁻⁶ cm/s | 335 µM (≈ 109 µg/mL) | 90 % remaining | 71 % remaining | 42 % remaining | 55 % remaining | 98 % bound | 98 % bound |  |  |  |  |  |  | 111 ×10⁻⁶ cm/s | 346 µM (≈ 112 µg/mL) |  |
| OC[C@@H]1[C@H](c2ccccc2)[C@@H]2CNCCCCN12 [29b, ((8R,9R,10S)-9-Phenyl-1,6-diazabicyclo[6.2.0]decan-10-yl)methanol] | 2 ×10⁻⁶ cm/s | 8 ×10⁻⁶ cm/s | > 500 µM | 94 % remaining | 99 % remaining | 89 % remaining | 86 % remaining | 9 % bound | 8 % bound |  |  |  |  |  |  | 6 ×10⁻⁶ cm/s | 491 µM (≈ 121 µg/mL) |  |

Second part, led by results:

| Papp A→B [2] | Papp B→A [2] | solubility at 24 h (physchem; PBS, aqueous buffer) | plasma stability mouse (Plasma stability, mouse) | plasma stability human (Plasma stability, human) | microsomal stability mouse [3] | microsomal stability human [4] | protein binding mouse [5] | protein binding human [6] | Caco-2 A-B (Caco-2 monolayer) | Caco-2 B-A (Caco-2 monolayer) | hepatocytes mouse [7] | hepatocytes human [8] | solubility H2O [9] | solubility PBS [9] | Structure (SMILES) | Papp [1] | solubility at 24 h (physchem; water) | BBB PAMPA [1] |
| --- | --- | --- | --- | --- | --- | --- | --- | --- | --- | --- | --- | --- | --- | --- | --- | --- | --- | --- |
| 14 ×10⁻⁶ cm/s | 21 ×10⁻⁶ cm/s | 494 µM (≈ 129 µg/mL) | 78 % remaining | 82 % remaining | 97 % remaining | 96 % remaining | 5 % bound | 1 % bound |  |  |  |  |  |  | CN1CCCCN2[C@H](CO)[C@H](c3ccccc3)[C@@H]2C1 [29c, ((8R,9R,10S)-6-Methyl-9-phenyl-1,6-diazabicyclo[6.2.0]decan-10-yl) methanol] | 9 ×10⁻⁶ cm/s | > 500 µM |  |
| 66 ×10⁻⁶ cm/s | 57 ×10⁻⁶ cm/s | 453 µM (≈ 141 µg/mL) | 105 % remaining | 97 % remaining | 63 % remaining | 73 % remaining | 37 % bound | 37 % bound |  |  |  |  |  |  | CCCN1[C@@H]2COc3ccccc3[C@@H]2[C@@H]1CNS(C)(=O)=O [32b, N-(((1R,2aS,8bR)-2-Propyl-2,2a,3,8b-tetrahydro-1H-chromeno[3,4-b]azet-1-yl)methyl) methanesulfonamide] |  |  |  |
| 29 ×10⁻⁶ cm/s | 35 ×10⁻⁶ cm/s | > 500 µM | 97 % remaining | 93 % remaining | 89 % remaining | 94 % remaining | 32 % bound | 37 % bound |  |  |  |  |  |  | CCCN1[C@H](CO)[C@H](c2ccccc2)C12CN(C(C)=O)C2 [30c, (2S,3S)-1-Propyl-2-hydroxymethyl-3-phenyl-6-acetyl-1,6-diazaspiro[3.3]heptane] |  |  |  |
|  |  |  | 107 % remaining | 101 % remaining | 34 % remaining | 69 % remaining | 50 % bound | 45 % bound | 56 10^−6 cm.s^−1 | 64 10^−6 cm.s^−1 |  |  | >500 µM | 478 µM (≈ 148 µg/mL) | CCCN1C(CO)C2c3ccccc3N(S(C)(=O)=O)CC21 (racemic) [31c, ((±)-4-(Methylsulfonyl)-2-propyl-1,2,2a,3,4,8b-hexahydroazeto[2,3-c]quinolin-1-yl) methanol] |  |  | 35 10^−6 cm s^−1 |
| 14 ×10⁻⁶ cm/s | 32 ×10⁻⁶ cm/s | 485 µM (≈ 158 µg/mL) | 94 % remaining | 97 % remaining | 98 % remaining | 96 % remaining | 46 % bound | 24 % bound |  |  | 99 % remaining | 104 % remaining |  |  | OC[C@@H]1[C@H](c2ccc(Br)cc2)[C@@H]2CNCCCCN12 [29a, ((8R,9R,10S)-9-(4-Bromophenyl)-1,6-diazabicyclo[6.2.0]decan-10-yl) methanol] | 14 ×10⁻⁶ cm/s | 388 µM (≈ 126 µg/mL) |  |
| 33 ×10⁻⁶ cm/s | 56 ×10⁻⁶ cm/s | > 500 µM | 106 % remaining | 86 % remaining | 98 % remaining | 99 % remaining | −6.0 % bound | 28 % bound |  |  |  |  |  |  | CCCN1[C@H](CO)[C@H](c2ccccc2)C12CN(C)C2 [30b, (2S,3S)-1-Propyl-2-hydroxymethyl-3-phenyl-6-methyl-1,6-diazaspiro[3.3]heptane] |  |  |  |
| 59 ×10⁻⁶ cm/s | 52 ×10⁻⁶ cm/s | 43 µM (≈ 14.5 µg/mL) | 102 % remaining | 94 % remaining | 0 % remaining | 0 % remaining | 91 % bound | 95 % bound |  |  |  |  |  |  | CCCN1[C@@H]2COc3ccccc3[C@@H]2[C@@H]1CNC(=O)c1ccccc1 [32a, N-(((1R,2aS,8bR)-2-Propyl-2,2a,3,8b-tetrahydro-1H-chromeno[3,4-b]azet-1-yl)methyl) benzamide] |  |  |  |
